Reference: ChEMBL document CHEMBL3867472, “Discovery of benzofuran propanoic acid GPR120 agonists: From uHTS hit to mechanism-based pharmacodynamic effects” (Bioorg Med Chem Lett, 2016)

Key:
[1] = molecular target: T1, Free fatty acid receptor 4 (Homo sapiens, UniProt Q5NUL3); test: Agonist activity at human GPR120 expressed in CHOK1 cells measured after 60 mins by IP1-HTRF assay; type: functional, cell-based, CHO-K1
T1 sequence (Q5NUL3 whole entry): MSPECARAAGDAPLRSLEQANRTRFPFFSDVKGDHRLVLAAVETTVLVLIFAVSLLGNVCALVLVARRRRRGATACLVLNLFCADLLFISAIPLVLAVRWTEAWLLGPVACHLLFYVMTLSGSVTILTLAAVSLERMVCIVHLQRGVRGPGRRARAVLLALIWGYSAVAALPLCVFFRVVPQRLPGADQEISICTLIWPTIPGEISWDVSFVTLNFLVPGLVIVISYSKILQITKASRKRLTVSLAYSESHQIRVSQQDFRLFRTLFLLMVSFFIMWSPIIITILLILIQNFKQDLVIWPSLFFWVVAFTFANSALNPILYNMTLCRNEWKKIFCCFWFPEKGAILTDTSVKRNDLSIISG

[2] = molecular target: T2, Free fatty acid receptor 4 (Mus musculus, UniProt Q7TMA4); test: Agonist activity at mouse GPR120 expressed in CHOK1 cells measured after 60 mins by IP1-HTRF assay; type: functional, cell-based, CHO-K1
T2 sequence (Q7TMA4 whole entry): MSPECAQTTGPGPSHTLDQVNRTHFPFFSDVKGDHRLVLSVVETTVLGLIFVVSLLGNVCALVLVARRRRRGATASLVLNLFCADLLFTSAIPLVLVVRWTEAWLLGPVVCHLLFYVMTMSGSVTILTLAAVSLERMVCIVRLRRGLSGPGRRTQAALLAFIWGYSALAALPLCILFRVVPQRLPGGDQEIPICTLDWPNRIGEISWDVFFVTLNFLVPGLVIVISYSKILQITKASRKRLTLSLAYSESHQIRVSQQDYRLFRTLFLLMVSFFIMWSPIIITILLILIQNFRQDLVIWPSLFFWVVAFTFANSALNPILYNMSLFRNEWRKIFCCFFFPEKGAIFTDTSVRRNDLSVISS

[3] = molecular target: T3, Free fatty acid receptor 4 (Mus musculus) (UniProt Q7TMA4); test: Agonist activity at mouse GPR120 expressed in CHOK1 cells measured after 60 mins by IP1-HTRF assay relative to basal level; type: functional, cell-based; design: concentration or dose not given beside the values; details: CHO-K1
T3 sequence (whole entry): T2 sequence (Q7TMA4 whole entry)

[4] = molecular target: T4, Free fatty acid receptor 4 (Homo sapiens) (UniProt Q5NUL3); test: Agonist activity at human GPR120 expressed in CHOK1 cells measured after 60 mins by IP1-HTRF assay relative to basal level; type: functional, cell-based; design: concentration or dose not given beside the values; details: CHO-K1
T4 sequence (whole entry): T1 sequence (Q5NUL3 whole entry)

[5] = molecular target: T5, Free fatty acid receptor 1 (Homo sapiens, UniProt O14842); test: Agonist activity at human GPR40 measured after 60 mins by IP1-HTRF assay; type: functional
T5 sequence (O14842 whole entry): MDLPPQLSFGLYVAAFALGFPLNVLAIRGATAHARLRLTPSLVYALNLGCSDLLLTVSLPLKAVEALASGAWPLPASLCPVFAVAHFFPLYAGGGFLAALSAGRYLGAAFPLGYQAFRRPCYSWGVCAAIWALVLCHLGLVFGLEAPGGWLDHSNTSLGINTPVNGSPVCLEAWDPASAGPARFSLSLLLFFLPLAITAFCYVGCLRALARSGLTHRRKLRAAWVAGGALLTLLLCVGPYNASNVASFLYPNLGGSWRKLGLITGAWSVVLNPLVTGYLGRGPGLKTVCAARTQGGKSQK

[6] = molecular target: T5, Free fatty acid receptor 1; test: Agonist activity at human GPR40 measured after 60 mins by IP1-HTRF assay relative to basal level; type: functional; design: concentration or dose not given beside the values

| SMILES | EC50 [1] [nM] | EC50 [2] [nM] | Activity [3] [%] | Activity [4] [%] | EC50 [5] [µM] | Activity [6] [%] |
| --- | --- | --- | --- | --- | --- | --- |
| CC(CC(=O)O)c1cc2cc(-c3cc(OC(F)(F)F)ccc3F)ccc2o1 (racemic) | 819 | 74 | 57 | 24 | > 9.95 |  |
| O=C(O)CCCOc1ccc(-c2cc(Oc3cccnc3)ccc2Cl)cc1 | 88 | 34 | 77 | 58 | > 9.95 |  |
| O=C(O)CCCOc1ccc(-c2cccc(Oc3ccccc3)c2)cc1 | 170 | 67 | 58 | 46 | 6.8 | 54 |
| O=C(O)CCCOc1ccc(-c2cc(OC(F)(F)F)ccc2Cl)c(F)c1 | 186 | 36 | 66 | 60 | > 9.95 |  |
| O=C(O)CCC1Cc2cc(-c3cc(OC(F)(F)F)ccc3F)ccc2O1 (stereo in doubt; 45) [listing 1 of 2 here] |  |  | 65 | 49 |  | 91 |
| O=C(O)CCC1Cc2cc(-c3cc(OC(F)(F)F)ccc3F)ccc2O1 (stereo in doubt; 44) [listing 1 of 2 here] |  |  | 68 | 101 |  | 24 |
| O=C(O)CCCOc1ccc(-c2ccccc2C(F)(F)F)cc1 | 8170 | 2190 | 15 | 31 | > 9.95 |  |
| O=C(O)CCc1cc2cc(-c3cc(Cl)cc(OC4CCC4)c3)ccc2o1 | 188 | 64 | 55 | 50 | > 9.95 |  |
| O=C(O)CCC1Cc2cc(-c3cc(OC(F)(F)F)ccc3F)ccc2O1 (stereo in doubt; 45) [listing 2 of 2 here] | 137 | 106 |  |  | 1.35 |  |
| O=C(O)c1cc2cc(-c3cc(OC(F)(F)F)ccc3F)ccc2o1 | > 9950 | > 9950 |  |  | > 9.95 |  |
| O=C(O)CCCOc1ccc(-c2cc(OC3CC3)ccc2F)cc1 | 66 | 32 | 61 | 68 | > 9.95 |  |
| Cc1cc(-c2cc(OC(F)(F)F)ccc2F)cc(C)c1OCCCC(=O)O | 149 | 47 | 86 | 87 | > 9.95 |  |
| CC(Cc1cc2cc(-c3cc(OC(F)(F)F)ccc3F)ccc2o1)C(=O)O (racemic) | 83 | 70 | 44 | 10 | > 9.95 |  |
| O=C(O)CCc1cc2cc(-c3cc(C(=O)C4CC4)ccc3F)ccc2o1 | 97 | 22 | 75 | 92 | > 9.95 |  |
| O=C(O)CCCOc1ccc(-c2ccccc2Oc2ccccc2)cc1 | 546 | 418 | 21 | 25 | > 9.95 |  |
| Cc1ccc(Oc2cccc(-c3ccc(OCCCC(=O)O)cc3)c2)cc1 | 182 | 66 | 83 | 77 | > 9.95 |  |
| O=C(O)CCCOc1ccc(-c2cccc(OCc3ccccc3)c2)cc1 | > 9950 | > 9950 |  |  | > 9.95 |  |
| Cc1cc(OCCCC(=O)O)ccc1-c1cc(OC(F)(F)F)ccc1Cl | 254 | 78 | 29 | 32 | > 9.95 |  |
| O=C(O)CCC1Cc2cc(-c3cc(OC(F)(F)F)ccc3F)ccc2O1 (stereo in doubt; 44) [listing 2 of 2 here] | 77 | 31 |  |  | 1.37 |  |
| O=C(O)CCc1cc2cc(-c3cc(OC(F)(F)F)ccc3Cl)ccc2o1 | 102 | 12 | 76 | 69 | > 9.95 |  |
| O=C(O)CCCOc1ccc(-c2ccccc2OC(F)(F)F)cc1 | 3000 | 1870 | 20 | 19 | > 9.95 |  |
| Fc1ccc(OC(F)(F)F)cc1-c1ccc2oc(CCc3nn[nH]n3)cc2c1 | > 9950 | 316 | 28 |  | > 9.95 |  |
